Key:
Lucilia cuprina Larven = assay: Lucilia cuprina test (treated horse meat, larvae); assay type: in vivo; settings: 100 % = all larvae killed, read-out: Abtötung
Source text: Zur Herstellung einer zweckmäßigen Wirkstoffzubereitung vermischt man 1 Gewichtsteil Wirkstoff mit der angegebenen Menge Wasser und verdünnt das Konzentrat mit Wasser auf die gewünschte Konzentration. Gefäße, die Pferdefleisch enthalten, das mit der Wirkstoffzubereitung der gewünschten Konzentration behandelt wurde, werden mit Lucilia cuprina Larven besetzt. Nach der gewünschten Zeit wird die Abtötung in % bestimmt. Dabei bedeutet 100 %, dass alle Larven abgetötet wurden; 0 % bedeutet, dass keine Larven abgetötet wurden. Bei diesem Test zeigen z. B. die folgenden Verbindungen der Herstellungsbeispiele eine Wirkung von ≥ 80 % bei einer Aufwandmenge von 100 ppm: • Bsp. Nr. 65

Myzus persicae = assay: Myzus test (spray treatment); assay type: in vivo; settings: foliar, 500 g/ha, spray on Brassica pekinensis leaf discs, 100 % = all aphids killed, read-out: Wirkung
Source text: Myzus-Test (Spritzbehandlung)
Zur Herstellung einer zweckmäßigen Wirkstoffzubereitung vermischt man 1 Gewichtsteil Wirkstoff mit den angegebenen Mengen Lösungsmittel und Emulgator und verdünnt das Konzentrat mit emulgatorhaltigem Wasser auf die gewünschte Konzentration. Chinakohlblattscheiben (Brassica pekinensis), die von allen Stadien der Grünen Pfirsichblattlaus (Myzus persicae) befallen sind, werden mit einer Wirkstoffzubereitung der gewünschten Konzentration gespritzt. Nach der gewünschten Zeit wird die Wirkung in % bestimmt. Dabei bedeutet 100 %, dass alle Blattläuse abgetötet wurden; 0 % bedeutet, dass keine Blattläuse abgetötet wurden. Bei diesem Test zeigen z. B. die folgenden Verbindungen der Herstellungsbeispiele eine Wirkung von ≥ 80 % bei einer Aufwandmenge von 500 g/ha: • Bsp. Nr. 2, 3, 31, 32, 33, 36, 37, 39, 40, 41, 42, 43, 44, 45, 46, 63, 64, 65, 66, 86, 87, 88, 90, 95, 96, 97, 99, 103

logP (HCOOH) = settings: hplc, formic acid
Boophilus microplus = Boophilus microplus test (injection); assay type: in vivo; settings: 20 µg/Tier; injection into abdomen; 100 % = no tick laid fertile eggs
Source text: Boophilus microplus -Test (Injektion)
Zur Herstellung einer zweckmäßigen Wirkstoffzubereitung vermischt man 1 Gewichtsteil Wirkstoff mit der angegebenen Menge Lösungsmittel und verdünnt das Konzentrat mit Lösungsmittel auf die gewünschte Konzentration. Die Wirkstofflösung wird in das Abdomen (Boophilus microplus) injiziert, die Tiere werden in Schalen überführt und in einem klimatisierten Raum aufbewahrt. Nach der gewünschten Zeit wird die Wirkung in % bestimmt. Dabei bedeutet 100%, dass keine Zecke fertile Eier gelegt hat. Bei diesem Test zeigen z. B. die folgenden Verbindungen der Herstellungsbeispiele eine Wirkung von = 80 % bei einer Aufwandmenge von 20 µg/Tier: • Bsp. Nr. 43, 44, 45, 46, 63, 64, 65, 66

chromatographic logP (logP (HCOOH)): 3.38
Compound: COCCNC(=S)N1CCOC1=N[C@@H](C)c1cccs1 [Beispiel 65]
mortality at 100 ppm (Lucilia cuprina Larven): ≥ 80% | mortality at 500 g/ha (Myzus persicae): ≥ 80% | Wirkung (Boophilus microplus): 80%
